Results: patent US9499553B2 (CHUGAI SEIYAKU KABUSHIKI KAISHA, priority 2013, dated 2016)

Each molecule was assayed against T1, human NaPi-IIb (Homo sapiens, UniProt O95436) (assay: Inhibitory effect on 33PO4 uptake into human NaPi-IIb-expressing CHO cells). Details: read-out: IC50 against 33PO4 uptake into human NaPi-IIb-expressing cells.
T1 construct: expressed in transfected cells
T1 sequence (O95436 1-690): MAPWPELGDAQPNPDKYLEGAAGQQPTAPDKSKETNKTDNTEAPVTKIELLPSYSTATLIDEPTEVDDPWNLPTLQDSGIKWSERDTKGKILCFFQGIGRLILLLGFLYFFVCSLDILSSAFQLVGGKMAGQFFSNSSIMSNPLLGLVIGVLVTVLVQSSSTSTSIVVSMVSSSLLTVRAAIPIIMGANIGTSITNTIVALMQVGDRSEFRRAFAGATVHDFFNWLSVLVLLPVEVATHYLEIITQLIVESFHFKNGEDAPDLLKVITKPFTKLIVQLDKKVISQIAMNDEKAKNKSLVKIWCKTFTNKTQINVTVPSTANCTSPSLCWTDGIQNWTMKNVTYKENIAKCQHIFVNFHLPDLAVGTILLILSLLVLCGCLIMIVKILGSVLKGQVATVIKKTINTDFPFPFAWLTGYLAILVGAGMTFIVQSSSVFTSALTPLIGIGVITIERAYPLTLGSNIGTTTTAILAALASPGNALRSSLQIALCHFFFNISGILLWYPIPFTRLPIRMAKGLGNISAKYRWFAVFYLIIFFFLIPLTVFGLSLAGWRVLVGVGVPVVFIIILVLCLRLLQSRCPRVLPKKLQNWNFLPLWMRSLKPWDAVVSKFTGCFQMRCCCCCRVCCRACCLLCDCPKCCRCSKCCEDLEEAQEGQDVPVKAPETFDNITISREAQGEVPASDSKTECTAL
Format: cell-based
In short: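 Uptake of ³³PO4 was measured by scintillation counting after ice-cold buffer A washes. Cells were CHO stably expressing human NaPi-IIb, seeded overnight, and exposed to ³³PO4 in buffer A at room temperature.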

SMILES | IC50 [µM]
COCCN1CC[C@@H](Oc2ccc(CN3C(=O)C(C(=O)Nc4ccc(C(F)(F)F)cc4-c4cc(C(F)(F)F)ncn4)=C(O)C4(CCC4)N3C)c(F)c2F)C1 [Example 405, 6-[[2,3-Difluoro-4-[(3R)-1-(2-methoxyethyl)pyrrolidin-3-yl]oxyphenyl]methyl]-9-hydroxy-5-methyl-7-oxo-N-[4-(trifluoromethyl)-2-[6-(trifluoromethyl)pyrimidin-4-yl]phenyl]-5,6-diazaspiro[3.5]non-8-ene-8-carboxamide] | 27.7
COCCN1CC(Oc2ccc(CN3C(=O)C(C(=O)Nc4ccc(C(F)(F)F)cc4-c4cc(C(F)(F)F)ncn4)=C(O)C4(CCC4)N3C)c(F)c2F)C1 [Example 406, 6-[[2,3-Difluoro-4-[1-(2-methoxyethyl)azetidin-3-yl]oxyphenyl]methyl]-9-hydroxy-5-methyl-7-oxo-N-[4-(trifluoromethyl)-2-[6-(trifluoromethyl)pyrimidin-4-yl]phenyl]-5,6-diazaspiro[3.5]non-8-ene-8-carboxamide] | 23.1
CC(CN1CCOCC1)Oc1ccc(CN2C(=O)C(C(=O)Nc3ccc(C(F)(F)F)cc3-c3cc(C(F)(F)F)ncn3)=C(O)C3(CCC3)N2C)c(F)c1F (stereo not drawn) [Example 408] | 14.6
CN(CCOc1ccc(CN2C(=O)C(C(=O)Nc3ccc(C(F)(F)F)cc3-c3cc(C(F)(F)F)ncn3)=C(O)C3(CCCC3)N2C)c(F)c1F)C1COC1 [Example 412, 7-(2,3-Difluoro-4-(2-(methyl(oxetan-3-yl)amino)ethoxy)benzyl)-10-hydroxy-6-methyl-8-oxo-N-(4-(trifluoromethyl)-2-(6-(trifluoromethyl)pyrimidin-4-yl)phenyl)-6,7-diazaspiro[4.5]dec-9-ene-9-carboxamide] | 19
CN1N(Cc2ccc(OCCOCCNCC(O)CO)c(F)c2F)C(=O)C(C(=O)Nc2ccc(C(F)(F)F)cc2-c2cc(C(F)(F)F)ncn2)=C(O)C12CCCC2 (stereo not drawn) [Example 419, 7-[[4-[2-[2-(2,3-Dihydroxypropylamino)ethoxy]ethoxy]-2,3-difluorophenyl]methyl]-10-hydroxy-6-methyl-8-oxo-N-[4-(trifluoromethyl)-2-[6-(trifluoromethyl)pyrimidin-4-yl]phenyl]-6,7-diazaspiro[4.5]dec-9-ene-9-carboxamide] | 24.8
CN(CCOCCOc1ccc(CN2C(=O)C(C(=O)Nc3ccc(C(F)(F)F)cc3-c3cc(C(F)(F)F)ncn3)=C(O)C3(CCCC3)N2C)c(F)c1F)C[C@H](O)[C@@H](O)[C@H](O)[C@H](O)CO [Example 420, 7-[[2,3-Difluoro-4-[2-[2-[methyl-[(2S,3R,4R,5R)-2,3,4,5,6-pentahydroxyhexyl]amino]ethoxy]ethoxy]phenyl]methyl]-10-hydroxy-6-methyl-8-oxo-N-[4-(trifluoromethyl)-2-[6-(trifluoromethyl)pyrimidin-4-yl]phenyl]-6,7-diazaspiro[4.5]dec-9-ene-9-carboxamide] | 18.6
CN(CCOCCOCCOCCOCCOc1ccc(CN2C(=O)C(C(=O)Nc3ccc(C(F)(F)F)cc3-c3cc(C(F)(F)F)ncn3)=C(O)C3(CCCC3)N2C)c(F)c1F)C[C@@H](O)[C@H](O)[C@@H](O)[C@@H](O)CO [Example 421, 7-[[2,3-Difluoro-4-[2-[2-[2-[2-[2-[methyl-[(2R,3 S,4S,5 S)-2,3,4,5,6-pentahydroxyhexyl]amino]ethoxy]ethoxy]ethoxy]ethoxy]ethoxy]phenyl]methyl]-10-hydroxy-6-methyl-8-oxo-N-[4-(trifluoromethyl)-2-[6-(trifluoromethyl)pyrimidin-4-yl]phenyl]-6,7-diazaspiro[4.5]dec-9-ene-9-carboxamide] | 19.5
CN(C[C@H](O)[C@@H](O)[C@H](O)[C@H](O)CO)C(=O)CCOCCOCCOCCOc1ccc(CN2C(=O)C(C(=O)Nc3ccc(C(F)(F)F)cc3-c3cc(C(F)(F)F)ncn3)=C(O)C3(CCCC3)N2C)c(F)c1F [Example 423] | 20
CN1N(Cc2ccc(OCCOCCOCCOCCC(=O)NCC(O)CO)c(F)c2F)C(=O)C(C(=O)Nc2ccc(C(F)(F)F)cc2-c2cc(C(F)(F)F)ncn2)=C(O)C12CCCC2 (stereo not drawn) [Example 424] | 29
CN(CCOCCC(=O)N(C)C[C@H](O)[C@@H](O)[C@H](O)[C@H](O)CO)CCOc1ccc(CN2C(=O)C(C(=O)Nc3ccc(C(F)(F)F)cc3-c3cc(C(F)(F)F)ncn3)=C(O)C3(CCCC3)N2C)c(F)c1F [Example 425] | 28.1
CN(CCOCCC(=O)NCC(O)CO)CCOc1ccc(CN2C(=O)C(C(=O)Nc3ccc(C(F)(F)F)cc3-c3cc(C(F)(F)F)ncn3)=C(O)C3(CCCC3)N2C)c(F)c1F (stereo not drawn) [Example 426] | 26.1
CN1N(Cc2ccc(OCCOCCNC(=O)[C@@H](O)[C@H](O)[C@@H](O)[C@@H](O)CO)c(F)c2F)C(=O)C(C(=O)Nc2ccc(C(F)(F)F)cc2-c2cc(C(F)(F)F)ncn2)=C(O)C12CCCC2 [Example 427] | 17.4
CN1N(Cc2ccc(OCCOCCOCCOCCNC(=O)[C@@H](O)[C@H](O)[C@@H](O)[C@@H](O)CO)c(F)c2F)C(=O)C(C(=O)Nc2ccc(C(F)(F)F)cc2-c2cc(C(F)(F)F)ncn2)=C(O)C12CCCC2 [Example 428, 7-[[2,3-Difluoro-4-[2-[2-[2-[2-[[(2S,3R,4S,5S)-2,3,4,5,6-pentahydroxyhexanoyl]amino]ethoxy]ethoxy]ethoxy]ethoxy]phenyl]methyl]-10-hydroxy-6-methyl-8-oxo-N-[4-(trifluoromethyl)-2-[6-(trifluoromethyl)pyrimidin-4-yl]phenyl]-6,7-diazaspiro[4.5]dec-9-ene-9-carboxamide] | 23
CN1N(Cc2ccc(OCCNCCS(=O)(=O)O)c(F)c2F)C(=O)C(C(=O)Nc2ccc(C(F)(F)F)cc2-c2cc(C(F)(F)F)ncn2)=C(O)C12CCCC2 [Example 435] | 17.1
COCCN(C)CCOc1c(I)cc(CN2C(=O)C(C(=O)Nc3ccc(C(F)(F)F)cc3-c3cc(C(F)(F)F)ncn3)=C(O)C3(CCCC3)N2C)c(F)c1F [Example 437, 7-[[2,3-Difluoro-5-iodo-4-[2-[2-methoxyethyl(methyl)amino]ethoxy]phenyl]methyl]-10-hydroxy-6-methyl-8-oxo-N-[4-(trifluoromethyl)-2-[6-(trifluoromethyl)pyrimidin-4-yl]phenyl]-6,7-diazaspiro[4.5]dec-9-ene-9-carboxamide] | 19.5
COCCCN(C)C(=O)c1cc(CN2C(=O)C(C(=O)Nc3ccc(C(F)(F)F)cc3-c3cc(C(F)(F)F)ncn3)=C(O)C3(CCCC3)N2C)c(F)c(F)c1OCCN(C)CCOC [Example 438] | 21.9

Stronger by IC50, values ahead:

IC50 [µM] | SMILES
6.9 | CN1N(Cc2ccc(OC(C)(C)CN3CCOCC3)c(F)c2F)C(=O)C(C(=O)Nc2ccc(C(F)(F)F)cc2-c2cc(C(F)(F)F)ncn2)=C(O)C12CCC2 [Example 407, 6-[[2,3-Difluoro-4-(2-methyl-1-morpholin-4-ylpropan-2-yl)oxyphenyl]methyl]-9-hydroxy-5-methyl-7-oxo-N-[4-(trifluoromethyl)-2-[6-(trifluoromethyl)pyrimidin-4-yl]phenyl]-5,6-diazaspiro[3.5]non-8-ene-8-carboxamide]
12.8 | CN1CCC(Oc2ccc(CN3C(=O)C(C(=O)Nc4ccc(C(F)(F)F)cc4-c4cc(C(F)(F)F)ncn4)=C(O)C4(CCC4)N3C)c(F)c2F)CC1 [Example 411]
11.3 | CN1N(Cc2ccc(OCC3CCCO3)c(F)c2F)C(=O)C(C(=O)Nc2ccc(C(F)(F)F)cc2-c2cc(C(F)(F)F)ncn2)=C(O)C12CCCC2 (stereo not drawn) [Example 413]
2.2 | COCCN(C)CCNc1ccc(CN2C(=O)C(C(=O)Nc3ccc(C(F)(F)F)cc3-c3cc(C(F)(F)F)ncn3)=C(O)C3(CCCC3)N2C)c(F)c1F [Example 417, 7-(2,3-Difluoro-4-((2-((2-methoxyethyl)(methyl)amino)ethyl)amino)benzyl)-10-hydroxy-6-methyl-8-oxo-N-(4-(trifluoromethyl)-2-(6-(trifluoromethyl)pyrimidin-4-yl)phenyl)-6,7-diazaspiro[4.5]dec-9-ene-9-carboxamide]
7.7 | COCCN(C)CCOCCOc1ccc(CN2C(=O)C(C(=O)Nc3ccc(C(F)(F)F)cc3-c3cc(C(F)(F)F)ncn3)=C(O)C3(CCCC3)N2C)c(F)c1F [Example 429, 7-[[2,3-Difluoro-4-[2-[2-[2-methoxyethyl(methyl)amino]ethoxy]ethoxy]phenyl]methyl]-10-hydroxy-6-methyl-8-oxo-N-[4-(trifluoromethyl)-2-[6-(trifluoromethyl)pyrimidin-4-yl]phenyl]-6,7-diazaspiro[4.5]dec-9-ene-9-carboxamide]
4.6 | COCCN(C)CCOCCOCCOc1ccc(CN2C(=O)C(C(=O)Nc3ccc(C(F)(F)F)cc3-c3cc(C(F)(F)F)ncn3)=C(O)C3(CCCC3)N2C)c(F)c1F [Example 430]
6.2 | COCCN(C)CCOCCOCCOCCOc1ccc(CN2C(=O)C(C(=O)Nc3ccc(C(F)(F)F)cc3-c3cc(C(F)(F)F)ncn3)=C(O)C3(CCCC3)N2C)c(F)c1F [Example 431]
6.3 | COCCN(C)CCOCCOCCOCCOCCOc1ccc(CN2C(=O)C(C(=O)Nc3ccc(C(F)(F)F)cc3-c3cc(C(F)(F)F)ncn3)=C(O)C3(CCCC3)N2C)c(F)c1F [Example 432]
